Assay results reported in patent publication EP1028734B1, “USE OF SPECIFIC STEADY-STATE R-TYPE CALCIUM CHANNEL BLOCKERS” (priority 1997, dated 1999).
pEC50: −log10 of the molar value. Like-named read-outs stand apart in the source and are kept apart here.

Experiments:
R-type Ca^2+ channel = test: block of R-type Ca2+ channel (data not shown); type: cell-based
[1] = anaesthetized rat, blood pressure, PAF challenge; type: in vivo; conditions: results not shown
Source text: (§1) On the other hand, in vivo administered PAF, induced a marked hypotension in the anaesthetized rat and guinea pig.

[2] = anaesthetized guinea pig, blood pressure and bronchoconstriction, PAF challenge; type: in vivo
Source text: as §1

[3] = writhe responses in mice (acetic acid, acetylcholine, kaolin); type: in vivo; conditions: i.p., mice; for ID50 ACETYLCHOLINE: acetylcholine-induced writhes; for ID50 KAOLIN: kaolin-induced writhes
Source text: (§2) The antinociceptive actions of compound MV 8612 and MV 8608 were investigated in different models of nociception in mice as reported previously (Vaz et al., 1996, J. Pharmacol. Exp. Ther. 278:304-312).

tail-flick in mice = type: in vivo; conditions: i.p.
Source text: as §2

fast Na^+ channel = test: block of fast Na+ channel (data not shown); type: cell-based; conditions: read-out: ED50, fast Na^+ channel
[4] = La Civita et al., 1996; cited from earlier work
[5] = cited from earlier work
[6] = organ (allograft) transplant with cyclosporin A treatment, ET-1, blood flow, hypertension; type: in vivo, rabbit
[7] = system: human osteoblast cancer lines (MG63 and FAOS-2); test: spontaneous proliferation of human osteoblast cancer lines; type: cell-based; conditions: Lomir/Dynacirc 10^-8M, nifedipine 10^-6M, non published results
[8] = transplant patients, Berg et al., 1991

Structure (SMILES): COc1ccc(CCN(C)CCCC(C#N)(c2cc(OC)c(OC)c(OC)c2)C(C)C)cc1OC (stereo not shown) [D600]
- block of the R-type Ca^2+ by L-type Ca^2+ channel blockers (R-type Ca^2+ channel): none were found to block

Structure (SMILES): COC(=O)C1=C(C)NC(C)=C(C(=O)OC)C1c1ccccc1[N+](=O)[O-] [nifedipine]
- intrinsic hypotensive properties [1]: marked intrinsic hypotensive properties
- intrinsic (hypotensive) effect [2]: marked intrinsic hypotensive properties

Structure (SMILES): COc1ccc2c(c1)c(CC(=O)O)c(C)n2C(=O)c1ccc(Cl)cc1 [INDOMETHACIN, indomethacin]
- ID50 ACETIC ACID ([3]; acetic acid-induced writhes): 1.2 (0.9-1.4) µmol/kg
- ID50 ACETYLCHOLINE [3]: 0.8 (0.5-1.0) µmol/kg
- ID50 KAOLIN [3]: 1.6 (1.4-1.8) µmol/kg
- ID50 TAIL-FLICK (tail-flick in mice): no effect

Structure (SMILES): COC(=O)C1=C(C)NC(C)=C(C(=O)OC(C)C)C1c1cccc2nonc12 (stereo not shown) [isradipine]
- pEC50 (fast Na^+ channel): ~5.00
- elevated plasma concentration of ET-1 level, frequency, severity of acute attacks of Raynaud's phenomenon [4]: significantly reduced
- filtration fraction ([5]; 3-month study, Grossman et al. 1991): remained constant
- filtration fraction [5, 8]: reduced
- renal blood flow [5, 8]: increased
- elevated circulating endothelin level induced with the Sandimmune drugs ([6]; data not shown): blocks
- hypertension and ET-1 plasma elevation associated with cyclosporin A treatment in allograft transplant ([6]; non published results): blocked
- increase of circulating ET-1 and decrease of blood flow in organ transplants ([6]; rabbit, cyclosporin-A treated and transplanted animals): restored
- intrinsic hypotensive properties [1]: marked intrinsic hypotensive properties
- intrinsic (hypotensive) effect [2]: marked intrinsic hypotensive properties
- spontaneous cell proliferation [7]: reduced

Structure (SMILES): COc1ccc([C@@H]2Sc3cc(Cl)ccc3N(CCN(C)C)C(=O)[C@@H]2OC(C)=O)cc1 [Clentiazem]
- block of the R-type Ca^2+ by L-type Ca^2+ channel blockers (R-type Ca^2+ channel): none were found to block

Structure (SMILES): CN1CC[C@]23c4c5ccc(O)c4O[C@H]2[C@@H](O)C=C[C@H]3[C@H]1C5 [MORPHINE, morphine]
- ID50 ACETYLCHOLINE [3]: 1.4 (1.0-1.8) µmol/kg
- ID50 KAOLIN [3]: 1.4 (1.2-1.7) µmol/kg
- ID50 TAIL-FLICK (tail-flick in mice): 6.0(5.7-6.4) µmol/kg

Structure (SMILES): COc1ccc(CCN(C)CCCC(C#N)(c2ccc(OC)c(OC)c2)C(C)C)cc1OC (stereo not shown) [Verapamil]
- block of the R-type Ca^2+ by L-type Ca^2+ channel blockers (R-type Ca^2+ channel): none were found to block

Structure (SMILES): COc1ccc([C@@H]2Sc3ccccc3N(CCN(C)C)C(=O)[C@@H]2OC(C)=O)cc1 [Diltiazem]
- block of the R-type Ca^2+ by L-type Ca^2+ channel blockers (R-type Ca^2+ channel): none were found to block

Structure (SMILES): COc1cccc(CCN(C)CCCC(C#N)(c2ccc(OC)c(OC)c2)C(C)C)c1 (stereo not shown) [D888]
- block of the R-type Ca^2+ by L-type Ca^2+ channel blockers (R-type Ca^2+ channel): none were found to block
